Test results: US9758527B2, “Cyclohexene derivative, preparation method therefor, and pharmaceutical composition for preventing or treating metabolic diseases, containing same as active ingredient” (HYUNDAI PHARM CO., LTD., priority 2014, dated 2017)
Read-outs that look alike come from different tables or passages of the source.

Molecular target: T1, G protein-coupled receptor 119 (GPR-119) (Mesocricetus auratus, UniProt A0A1U8CD06)
T1 construct: hamster-derived β-cells containing G protein-coupled receptor 119 (GPR-119), HIT-T15 cells; host or cells: HIT-T15 (hamster pancreatic β-cells)
T1 sequence (A0A1U8CD06 1-334): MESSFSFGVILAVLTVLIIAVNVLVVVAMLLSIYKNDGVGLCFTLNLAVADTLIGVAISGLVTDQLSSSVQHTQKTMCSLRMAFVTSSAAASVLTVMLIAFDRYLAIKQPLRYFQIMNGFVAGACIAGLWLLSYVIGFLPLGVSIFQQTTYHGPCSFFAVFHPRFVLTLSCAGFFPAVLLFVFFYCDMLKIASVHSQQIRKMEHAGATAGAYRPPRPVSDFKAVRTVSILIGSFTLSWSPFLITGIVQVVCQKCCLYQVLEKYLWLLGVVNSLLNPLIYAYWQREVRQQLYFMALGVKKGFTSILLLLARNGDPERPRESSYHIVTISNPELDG
Assay: Evaluation of cAMP activity in HIT-T15 cells (HTRF cAMP dynamic kit)
Assay type: cell-based, hamster
Conditions: cAMP activation
Procedure: To check whether the cyclohexene derivatives according to the present invention activate cyclic adenosine monophosphate (cAMP), experiments were carried out, as follows.
The HIT-T15 cells were plated on a 96-well plate at 60,000 cells per well. On the next day of plating, the cells were treated with a varying concentration of each of the example compounds according to the present invention, and incubated at 37° C. for an hour. In this case, each of the treated compounds was used at six concentrations, ranging from […], to treat the cells.
The cyclic adenosine monophosphate (cAMP) activity was measured according to the manufacturer's instruction using a cAMP dynamic kit commercially available from Cis Bio Inc. (Bedford, Mass.). The cells were lysed, and a level of cAMP was determined by a competitive immunoassay using D2-labeled cAMP and a cryptate-labeled anti-cAMP antibody. Fluorescence was read in Flex Station (Molecular Devices). […] Unlabeled cAMP in the cell lysate competed with the D2-labeled cAMP against the cryptate-labeled antibody. Since a decrease in the measured intensity of the FRET signals represents a level of cAMP in the cells, the cAMP activities of the compounds are calculated as a change in FRET signals by adjusting an amount of dimethyl sulfoxide (DMSO).

[1] = 1 h at 37° C., six concentrations, read-out: EC50

EC50 [1] [nM] | EC50 (read-out: EC50 value) [nM] | SMILES
650 | – | CC(C)c1noc(N2CCC(COc3ccc(C4=CCC(C(=O)NC[C@H](O)CO)CC4)nc3)CC2)n1 (stereo partly drawn) [Example 41, N-((S)-2,3-dihydroxypropyl)-4-(5-((1-(3-isopropyl-1,2,4-oxadiazol-5-yl)piperidin-4-yl)methoxy)pyridin-2-yl)cyclohex-3-enecarboxamide]
82 | – | CC(C)(C)OC(=O)N1CCC(COc2ccc(C3=CCC(C(=O)N4CC[C@H](O)C4)CC3)cn2)CC1 (stereo partly drawn) [Example 42, tert-butyl 4-((5-(4-((S)-3-hydroxypyrrolidine-1-carbonyl)cyclohex-1-enyl)pyridin-2-yloxy)methyl)piperidine-1-carboxylate]
85 | – | CC(C)(C)OC(=O)N1CCC(COc2ccc(C3=CCC(C(=O)N4CC[C@@H](O)C4)CC3)cn2)CC1 (stereo partly drawn) [Example 43, tert-butyl 4-((5-(4-((R)-3-hydroxypyrrolidine-1-carbonyl)cyclohex-1-enyl)pyridin-2-yloxy)methyl)piperidine-1-carboxylate]
13 | ≤ 50 | CC(C)(C)OC(=O)N1CCC(COc2ccc(C3=CCC(C(=O)N4CC[C@H](O)C4)CC3)cc2F)CC1 (stereo partly drawn) [Example 44, tert-butyl 4-((2-fluoro-4-(4-((S)-3-hydroxypyrrolidine-1-carbonyl)cyclohex-1-enyl)phenoxy)methyl)piperidine-1-carboxylate]
25 | ≤ 50 | CC(C)(C)OC(=O)N1CCC(COc2ccc(C3=CCC(C(=O)N4CC[C@@H](O)C4)CC3)cc2F)CC1 (stereo partly drawn) [Example 45, tert-butyl 4-((2-fluoro-4-(4-((R)-3-hydroxypyrrolidine-1-carbonyl)cyclohex-1-enyl)phenoxy)methyl)piperidine-1-carboxylate]
500 | – | CC(C)c1noc(N2CCC(COc3ccc(C4=CCC(C(=O)NC(CO)CO)CC4)nc3)CC2)n1 (stereo not shown) [Example 46, N-(1,3-dihydroxypropan-2-yl)-4-(5-((1-(3-isopropyl-1,2,4-oxadiazol-5-yl)piperidin-4-yl)methoxy)pyridin-2-yl)cyclohex-3-enecarboxamide]
150 | – | CC(C)c1noc(N2CCC(COc3ccc(C4=CCC(C(=O)NCC(C)(C)CO)CC4)nc3)CC2)n1 (stereo not shown) [Example 47, N-(3-hydroxy-2,2-dimethylpropyl)-4-(5-((1-(3-isopropyl-1,2,4-oxadiazol-5-yl)piperidin-4-yl)methoxy)pyridin-2-yl)cyclohex-3-enecarboxamide]
26 | ≤ 50 | CC(C)c1noc(N2CCC(COc3ccc(C4=CCC(C(=O)N5CC[C@H](O)C5)CC4)cc3)CC2)n1 (stereo partly drawn) [Example 49, ((S)-3-hydroxypyrrolidin-1-yl)(4-(4-((1-(3-isopropyl-1,2,4-oxadiazol-5-yl)piperidin-4-yl)methoxy)phenyl)cyclohex-3-enyl)methanone]
95 | – | CCc1cnc(N2CCC(COc3ccc(C4=CCC(C(=O)NCC(F)F)CC4)cc3)CC2)nc1 (stereo not shown) [Example 50, N-(2,2-difluoroethyl)-4-(4-((1-(5-ethylpyrimidin-2-yl)piperidin-4-yl)methoxy)phenyl)cyclohex-3-enecarboxamide]
66 | – | CC(C)c1noc(N2CCC(COc3ccc(C4=CCC(C(=O)NCC(F)F)CC4)cc3)CC2)n1 (stereo not shown) [Example 51, N-(2,2-difluoroethyl)-4-(4-((1-(3-isopropyl-1,2,4-oxadiazol-5-yl)piperidin-4-yl)methoxy)phenyl)cyclohex-3-enecarboxamide]
55 | – | CC(C)c1noc(N2CCC(COc3ccc(C4=CCC(C(=O)N5CCCC5)CC4)cc3)CC2)n1 (stereo not shown) [Example 52, (4-(4-((1-(3-isopropyl-1,2,4-oxadiazol-5-yl)piperidin-4-yl)methoxy)phenyl)cyclohex-3-enyl)(pyrrolidin-1-yl)methanone]
21 | ≤ 50 | CC(C)c1noc(N2CCC(COc3ccc(C4=CCC(C(=O)N5CC[C@H](F)C5)CC4)cc3)CC2)n1 (stereo partly drawn) [Example 53, ((S)-3-fluoropyrrolidin-1-yl)(4-(4-((1-(3-isopropyl-1,2,4-oxadiazol-5-yl)piperidin-4-yl)methoxy)phenyl)cyclohex-3-enyl)methanone]
42 | ≤ 50 | CC(C)c1noc(N2CCC(COc3ccc(C4=CCC(C(=O)N5CC[C@@H](F)C5)CC4)cc3)CC2)n1 (stereo partly drawn) [Example 54, ((R)-3-fluoropyrrolidin-1-yl)(4-(4-((1-(3-isopropyl-1,2,4-oxadiazol-5-yl)piperidin-4-yl)methoxy)phenyl)cyclohex-3-enyl)methanone]
100 | – | CCc1cnc(N2CCC(COc3ccc(C4=CCC(C(=O)N5CCN(CC)CC5)CC4)cc3)CC2)nc1 (stereo not shown) [Example 55, (4-ethylpiperazin-1-yl)(4-(4-((1-(5-ethylpyrimidin-2-yl)piperidin-4-yl)methoxy)phenyl)cyclohex-3-enyl)methanone]
30 | ≤ 50 | CC(C)c1noc(N2CCC(COc3ccc(C4=CCC(C(=O)N5CCCCC5)CC4)cc3)CC2)n1 (stereo not shown) [Example 56, (4-(4-((1-(3-isopropyl-1,2,4-oxadiazol-5-yl)piperidin-4-yl)methoxy)phenyl)cyclohex-3-enyl)(piperidin-1-yl)methanone]

Continued, molecule first:

SMILES | EC50 [1] [nM] | EC50 (read-out: EC50 value) [nM]
CCc1cnc(N2CCC(COc3ccc(C4=CCC(C(=O)NC[C@@H](C)O)CC4)cc3)CC2)nc1 (stereo partly drawn) [Example 30, 4-(4-((1-(5-ethylpyrimidin-2-yl)piperidin-4-yl)methoxy)phenyl)-N-((R)-2-hydroxypropyl)cyclohex-3-enecarboxamide] | 105 | –
CC(C)c1noc(N2CCC(COc3ccc(C4=CCC(C(=O)NCCO)CC4)cc3)CC2)n1 (stereo not shown) [Example 31, N-(2-hydroxyethyl)-4-(4-((1-(3-isopropyl-1,2,4-oxadiazol-5-yl)piperidin-4-yl)methoxy)phenyl)cyclohex-3-enecarboxamide] | 260 | –
CC(C)(C)OC(=O)N1CCC(COc2ccc(C3=CCC(C(=O)NC[C@@H](O)CO)CC3)cn2)CC1 (stereo partly drawn) [Example 32, tert-butyl 4-((5-(4-((R)-2,3-dihydroxypropylcarbamoyl)cyclohex-1-enyl)pyridin-2-yloxy)methyl)piperidine-1-carboxylate] | 650 | –
CC(C)(C)OC(=O)N1CCC(COc2ccc(C3=CCC(C(=O)NC[C@H](O)CO)CC3)cn2)CC1 (stereo partly drawn) [Example 33, tert-butyl 4-((5-(4-((S)-2,3-dihydroxypropylcarbamoyl)cyclohex-1-enyl)pyridin-2-yloxy)methyl)piperidine-1-carboxylate] | 600 | –
CC(C)c1noc(N2CCC(COc3ccc(C4=CCC(C(=O)N(C)CCO)CC4)cc3)CC2)n1 (stereo not shown) [Example 34, N-(2-hydroxyethyl)-4-(4-((1-(3-isopropyl-1,2,4-oxadiazol-5-yl)piperidin-4-yl)methoxy)phenyl)-N-methylcyclohex-3-enecarboxamide] | 21 | ≤ 50
CCN(CCO)C(=O)C1CC=C(c2ccc(OCC3CCN(c4nc(C(C)C)no4)CC3)cc2)CC1 (stereo not shown) [Example 35, N-ethyl-N-(2-hydroxyethyl)-4-(4-((1-(3-isopropyl-1,2,4-oxadiazol-5-yl)piperidin-4-yl)methoxy)phenyl)cyclohex-3-enecarboxamide] | 22 | ≤ 50
CC(C)c1noc(N2CCC(COc3ccc(C4=CCC(C(=O)N[C@H](C)CO)CC4)nc3)CC2)n1 (stereo partly drawn) [Example 36, N-((R)-1-hydroxypropan-2-yl)-4-(5-((1-(3-isopropyl-1,2,4-oxadiazol-5-yl)piperidin-4-yl)methoxy)pyridin-2-yl)cyclohex-3-enecarboxamide] | 170 | –
CC(C)c1noc(N2CCC(COc3ccc(C4=CCC(C(=O)N[C@@H](C)CO)CC4)nc3)CC2)n1 (stereo partly drawn) [Example 37, N-((S)-1-hydroxypropan-2-yl)-4-(5-((1-(3-isopropyl-1,2,4-oxadiazol-5-yl)piperidin-4-yl)methoxy)pyridin-2-yl)cyclohex-3-enecarboxamide] | 300 | –
CC(C)c1noc(N2CCC(COc3ccc(C4=CCC(C(=O)NC[C@@H](C)O)CC4)nc3)CC2)n1 (stereo partly drawn) [Example 38, N-((R)-2-hydroxypropyl)-4-(5-((1-(3-isopropyl-1,2,4-oxadiazol-5-yl)piperidin-4-yl)methoxy)pyridin-2-yl)cyclohex-3-enecarboxamide] | 450 | –
CC(C)c1noc(N2CCC(COc3ccc(C4=CCC(C(=O)NC[C@H](C)O)CC4)nc3)CC2)n1 (stereo partly drawn) [Example 39, N-((S)-2-hydroxypropyl)-4-(5-((1-(3-isopropyl-1,2,4-oxadiazol-5-yl)piperidin-4-yl)methoxy)pyridin-2-yl)cyclohex-3-enecarboxamide] | 350 | –
CC(C)c1noc(N2CCC(COc3ccc(C4=CCC(C(=O)NC[C@@H](O)CO)CC4)nc3)CC2)n1 (stereo partly drawn) [Example 40, N-((R)-2,3-dihydroxypropyl)-4-(5-((1-(3-isopropyl-1,2,4-oxadiazol-5-yl)piperidin-4-yl)methoxy)pyridin-2-yl)cyclohex-3-enecarboxamide] | 500 | –
